Patent US20260049072A1, “HETEROCYCLIC COMPOUND FOR INDUCING DEGRADATION OF MUTANT KRAS PROTEIN” (Astellas Pharma Inc., priority 2022, published 2026)

Tested on: PK-59 xenograft
Assay: Anti-tumor activity in PK-59 xenograft mouse
Assay type: in vivo
Conditions: 10 mg/kg, tail vein, once a week for two weeks, male nude mice
Procedure: Test Example 4: Evaluation of Anti-Tumor Activity in Human KRAS G12V Mutant-Positive Pancreatic Cancer Line PA-TU-8902 or Human KRAS G12D Mutant-Positive Pancreatic Cancer Line PK-59 Xenograft Mouse
PA-TU-8902 cells or PK-59 cells (RIKEN BRC, RCB1901) were cultured using DMEM medium or RPMI-1640 medium containing 10% fetal bovine serum, respectively, in the presence of 5% CO2 at 37° C. The PA-TU-8902 cells or the PK-59 cells were collected and suspended in PBS, and two equivalents of VitroGel Hydrogel Matrix (from TheWell Bioscience) was added. A cell suspension prepared at 1.0-2.0×10^7 cells/mL was subcutaneously inoculated in a volume of 100 μL in 4- to 6-week-old male nude mice (BALB/c-nu (nu/nu), from The Jackson Laboratory Japan, Inc.). After about two weeks of the inoculation, the mice were divided into groups so that all the groups had approximately the same tumor volume and body weight, and administration of a subject compound was started on the next day. The test was conducted for five mice for each of a solvent group and a subject compound administration group. The solvent used was a solvent containing ethanol (from FUJIFILM Wako), an aqueous (2-hydroxypropyl)-β-cyclodextrin (HP-PCD) solution (from ROQUETTE), HCO-40 (from Nikko Chemicals Co., Ltd.) dissolved in a 5% glucose solution (from Otsuka Pharmaceutical) at a ratio of 4%, 0.5%, and 9%, respectively. The compound was dissolved using the solvent. The subject compound dissolved in the solvent or the solvent was administered into tail vein. The administration was performed once or twice a week for two weeks. The tumor size and the body weight were measured twice a week. The tumor volume was calculated by using the following formula.
[Tumor volume (mm^3)]=[Major axis of tumor (mm)]×[Minor axis of tumor (mm)]^2×0.5
The tumor growth inhibition (%) by the subject compound was calculated with the tumor volume of the subject compound administration group on the previous day of the start of the administration taken as 100% inhibition and the tumor volume of the solvent group of the day of the final measurement taken as 0% inhibition.

CO[C@@H](C)COc1nc(NC2CN(C(=O)O[C@H]3C[C@@H](N(C)C)C3)C2)c2cc(C3CC3)c(-c3c(C)c(F)cc4[nH]ncc34)c(OCc3ccc(-c4cn([C@H](C(=O)N5C[C@H](O)C[C@H]5C(=O)N[C@@H](CO)c5ccc(-c6ocnc6C)cc5)C(C)C)nn4)cc3)c2n1 (atropisomer, axis not shown; (M)) [Example 1, (1s,3R)-3-(dimethylamino)cyclobutyl 3-({(7M)-6-cyclopropyl-7-(6-fluoro-5-methyl-1H-indazol-4-yl)-8-{[4-(1-{(2S)-1-[(2S,4R)-4-hydroxy-2-({(1R)-2-hydroxy-1-[4-(4-methyl-1,3-oxazol-5-yl)phenyl]ethyl}carbamoyl)pyrrolidin-1-yl]-3-methyl-1-oxobutan-2-yl}-1H-1,2,3-triazol-4-yl)phenyl]methoxy}-2-[(2S)-2-methoxypropoxy]quinazolin-4-yl}amino)azetidine-1-carboxylate]
Anti-tumor activity at final measurement (PK-59 xenograft mouse), tumor growth inhibition: 68% inhibition

CO[C@@H](C)COc1cc(OC2CN(C(=O)N3CC(CN(C)C)C3)C2)c2cc(C3CC3)c(-c3c(C)c(F)cc4[nH]ncc34)c(OCc3ccc(-c4cn([C@H](C(=O)N5C[C@H](O)C[C@H]5C(=O)N[C@@H](CO)c5ccc(-n6cncn6)cc5)C(C)C)nn4)cc3)c2n1 (atropisomer, axis not shown; (M)) [Example 5, (4R)-1-[(2S)-2-(4-{4-[({(7M)-6-cyclopropyl-4-[(1-{3-[(dimethylamino)methyl]azetidine-1-carbonyl}azetidin-3-yl)oxy]-7-(6-fluoro-5-methyl-1H-indazol-4-yl)-2-[(2S)-2-methoxypropoxy]quinolin-8-yl}oxy)methyl]phenyl}-1H-1,2,3-triazol-1-yl)-3-methylbutanoyl]-4-hydroxy-N-{(1R)-2-hydroxy-1-[4-(1H-1,2,4-triazol-1-yl)phenyl]ethyl}-L-prolinamide]
Anti-tumor activity at final measurement (PK-59 xenograft mouse), tumor growth inhibition: 92% inhibition

CO[C@@H](C)COc1nc(NC2CN(C(=O)O[C@H]3C[C@@H](N(C)C)C3)C2)c2cc(C3CC3)c(-c3c(C)c(F)cc4[nH]ncc34)c(OCc3ccc(-c4cn([C@H](C(=O)N5C[C@H](O)C[C@H]5C(=O)N[C@@H](CO)c5ccc(-c6scnc6C)cc5)C(C)C)nn4)cc3)c2n1 (atropisomer, axis not shown; (M)) [Example 11, (1s,3R)-3-(dimethylamino)cyclobutyl 3-({(7M)-6-cyclopropyl-7-(6-fluoro-5-methyl-1H-indazol-4-yl)-8-{[4-(1-{(2S)-1-[(2S,4R)-4-hydroxy-2-({(1R)-2-hydroxy-1-[4-(4-methyl-1,3-thiazol-5-yl)phenyl]ethyl}carbamoyl)pyrrolidin-1-yl]-3-methyl-1-oxobutan-2-yl}-1H-1,2,3-triazol-4-yl)phenyl]methoxy}-2-[(2S)-2-methoxypropoxy]quinazolin-4-yl}amino)azetidine-1-carboxylate]
Anti-tumor activity at final measurement (PK-59 xenograft mouse), tumor growth inhibition: 95% inhibition

CO[C@@H](C)COc1cc(OC2CN(C(=O)O[C@H]3C[C@@H](N(C)C)C3)C2)c2cc(C3CC3)c(-c3c(C)c(F)cc4[nH]ncc34)c(OCc3ccc(-c4cn([C@H](C(=O)N5C[C@H](O)C[C@H]5C(=O)N[C@@H](CO)c5ccc(-n6cncn6)cc5)C(C)C)nn4)cc3)c2n1 (atropisomer, axis not shown; (M)) [Example 13, (1s,3R)-3-(dimethylamino)cyclobutyl 3-({(7M)-6-cyclopropyl-7-(6-fluoro-5-methyl-1H-indazol-4-yl)-8-{[4-(1-{(2S)-1-[(2S,4R)-4-hydroxy-2-({(1R)-2-hydroxy-1-[4-(1H-1,2,4-triazol-1-yl)phenyl]ethyl}carbamoyl)pyrrolidin-1-yl]-3-methyl-1-oxobutan-2-yl}-1H-1,2,3-triazol-4-yl)phenyl]methoxy}-2-[(2S)-2-methoxypropoxy]quinolin-4-yl}oxy)azetidine-1-carboxylate]
Anti-tumor activity at final measurement (PK-59 xenograft mouse), tumor growth inhibition: 78% inhibition

CO[C@@H](C)COc1cc(OC2CN(C(=O)NCCN(C)C)C2)c2cc(C3CC3)c(-c3c(C)c(F)cc4[nH]ncc34)c(OCc3ccc(-c4cn([C@H](C(=O)N5C[C@H](O)C[C@H]5C(=O)N[C@@H](CO)c5ccc(-n6cncn6)cc5)C(C)C)nn4)cc3)c2n1 (atropisomer, axis not shown; (M)) [Example 12, (4R)-1-[(2S)-2-(4-{4-[({(7M)-6-cyclopropyl-4-[(1-{[2-(dimethylamino)ethyl]carbamoyl}azetidin-3-yl)oxy]-7-(6-fluoro-5-methyl-1H-indazol-4-yl)-2-[(2S)-2-methoxypropoxy]quinolin-8-yl}oxy)methyl]phenyl}-1H-1,2,3-triazol-1-yl)-3-methylbutanoyl]-4-hydroxy-N-{(1R)-2-hydroxy-1-[4-(1H-1,2,4-triazol-1-yl)phenyl]ethyl}-L-prolinamide]
Anti-tumor activity at final measurement (PK-59 xenograft mouse), tumor growth inhibition: 63% inhibition
